# Assays:
# [1] = target: T1, Enoyl-[acyl-carrier-protein] reductase [NADH] FabI (Escherichia coli K-12, UniProt P0AEK4); assay: Inhibition of Escherichia coli FabI assessed as effect on NAD(P)H consumption
# T1 sequence (P0AEK4 whole entry): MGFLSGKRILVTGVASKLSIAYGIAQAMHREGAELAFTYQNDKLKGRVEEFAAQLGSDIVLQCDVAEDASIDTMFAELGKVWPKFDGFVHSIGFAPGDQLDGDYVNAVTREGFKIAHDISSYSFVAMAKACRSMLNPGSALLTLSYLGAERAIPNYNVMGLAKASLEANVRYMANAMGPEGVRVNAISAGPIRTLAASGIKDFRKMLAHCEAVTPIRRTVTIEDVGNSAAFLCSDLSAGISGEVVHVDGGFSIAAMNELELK
# Staphylococcus aureus [2] = assay: Antibacterial activity against Staphylococcus aureus 29213 by microdilution method; format: functional
# Staphylococcus aureus [3] = assay: Antibacterial activity against methicillin-resistant Staphylococcus aureus 43300 by microdilution method; format: functional
# [4] = Aqueous solubility at pH 4.0; format: physicochemical
# [5] = target: T2, Enoyl-[acyl-carrier-protein] reductase [NADPH] FabI (Staphylococcus aureus, UniProt Q6GI75); assay: Inhibition of Staphylococcus aureus FabI
# T2 sequence (Q6GI75 whole entry): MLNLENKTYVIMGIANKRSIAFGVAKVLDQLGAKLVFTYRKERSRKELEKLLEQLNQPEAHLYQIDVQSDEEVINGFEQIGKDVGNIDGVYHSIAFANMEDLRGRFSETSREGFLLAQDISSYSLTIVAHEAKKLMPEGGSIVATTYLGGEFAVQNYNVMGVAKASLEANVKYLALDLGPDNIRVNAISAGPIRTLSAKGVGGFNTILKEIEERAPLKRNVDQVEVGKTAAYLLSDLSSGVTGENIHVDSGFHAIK
# [6] = Aqueous solubility at pH 7.4; format: physicochemical
# Escherichia coli = assay: Antibacterial activity against Escherichia coli AG100A […] by microdilution method; format: functional
compound,measurement,setting,value
CCCOc1c(CN(C)C(=O)/C=C/c2cnc3c(c2)CC2(CCN(C)CC2)C(=O)N3)cccc1OC,IC50,[1],0.055 µM
same,MIC,Staphylococcus aureus [2],0.031 µg/mL
same,MIC,Staphylococcus aureus [3],0.125 µg/mL
same,solubility,[4],1500 µg/mL
same,IC50,[5],0.026 µM
same,solubility,[6],1000 µg/mL
same,MIC,Escherichia coli,4 µg/mL
CN(Cc1cc2ccccc2n1C)C(=O)/C=C/c1cnc2c(c1)CC1(CCNCC1)C(=O)N2,IC50,[1],0.017 µM
same,MIC,Staphylococcus aureus [2],0.5 µg/mL
same,MIC,Staphylococcus aureus [3],2 µg/mL
same,solubility,[4],> 100 µg/mL
same,IC50,[5],0.132 µM
same,solubility,[6],> 100 µg/mL
same,MIC,Escherichia coli,0.5 µg/mL
Cc1c(CN(C)C(=O)/C=C/c2cnc3c(c2)CC2(CCNCC2)C(=O)N3)sc2ccccc12,IC50,[1],0.0004 µM
same,MIC,Staphylococcus aureus [2],≤ 0.016 µg/mL
same,MIC,Staphylococcus aureus [3],0.063 µg/mL
same,solubility,[4],22 µg/mL
same,IC50,[5],0.048 µM
same,solubility,[6],4.8 µg/mL
same,MIC,Escherichia coli,≤ 0.063 µg/mL
Cc1c(CN(C)C(=O)/C=C/c2cnc3c(c2)CC2(CCN(C)CC2)C(=O)N3)oc2ccccc12,IC50,[1],0.0018 µM
same,MIC,Staphylococcus aureus [2],≤ 0.016 µg/mL
same,MIC,Staphylococcus aureus [3],≤ 0.016 µg/mL
same,solubility,[4],83 µg/mL
same,IC50,[5],0.02 µM
same,solubility,[6],43 µg/mL
same,MIC,Escherichia coli,0.25 µg/mL
Cc1c(CN(C)C(=O)/C=C/c2cnc3c(c2)CCC(=O)N3)sc2ccccc12,MIC,Staphylococcus aureus [2],0.125 µg/mL
same,MIC,Staphylococcus aureus [3],0.063 µg/mL
same,IC50,[5],0.03 µM
same,MIC,Escherichia coli,4 µg/mL
CCCOc1c(CN(C)C(=O)/C=C/c2cnc3c(c2)CC2(CCNCC2)C(=O)N3)cccc1OC,MIC,Staphylococcus aureus [2],0.125 µg/mL
same,MIC,Staphylococcus aureus [3],0.5 µg/mL
same,solubility,[4],700 µg/mL
same,IC50,[5],0.071 µM
same,solubility,[6],520 µg/mL
same,MIC,Escherichia coli,2 µg/mL
CN(Cc1cc2ccccc2n1C)C(=O)/C=C/c1cnc2c(c1)CCC(=O)N2,IC50,[1],0.139 µM
same,MIC,Staphylococcus aureus [2],≤ 0.016 µg/mL
same,MIC,Staphylococcus aureus [3],0.016 µg/mL
same,solubility,[6],5.8 µg/mL
same,MIC,Escherichia coli,≤ 0.063 µg/mL
Cc1c(CN(C)C(=O)/C=C/c2cnc3c(c2)CC2(CCN(C)CC2)C(=O)N3)sc2ccc(F)cc12,IC50,[1],0.024 µM
same,MIC,Staphylococcus aureus [2],≤ 0.016 µg/mL
same,MIC,Staphylococcus aureus [3],≤ 0.016 µg/mL
same,solubility,[4],790 µg/mL
same,IC50,[5],0.028 µM
same,solubility,[6],110 µg/mL
same,MIC,Escherichia coli,≤ 0.063 µg/mL
Cc1c(CN(C)C(=O)/C=C/c2cnc3c(c2)CN(CCN2CCOCC2)C(=O)N3)sc2ccccc12,IC50,[1],0.007 µM
same,MIC,Staphylococcus aureus [2],≤ 0.063 µg/mL
same,MIC,Staphylococcus aureus [3],≤ 0.063 µg/mL
same,solubility,[4],> 67 µg/mL
same,IC50,[5],0.026 µM
same,solubility,[6],6.1 µg/mL
same,MIC,Escherichia coli,≤ 0.063 µg/mL
Cc1c(CN(C)C(=O)/C=C/c2cnc3c(c2)CC2(CCN(C)CC2)C(=O)N3)sc2ccccc12,IC50,[1],0.0024 µM
same,MIC,Staphylococcus aureus [2],≤ 0.016 µg/mL
same,MIC,Staphylococcus aureus [3],≤ 0.016 µg/mL
same,solubility,[4],360 µg/mL
same,IC50,[5],0.014 µM
same,solubility,[6],110 µg/mL
same,MIC,Escherichia coli,≤ 0.063 µg/mL
Cc1c(CN(C)C(=O)/C=C/c2cnc3c(c2)CC2(CCNCC2)C(=O)N3)oc2ccccc12,IC50,[1],0.0007 µM
same,MIC,Staphylococcus aureus [2],0.031 µg/mL
same,MIC,Staphylococcus aureus [3],0.031 µg/mL
same,solubility,[4],1500 µg/mL
same,IC50,[5],0.049 µM
same,solubility,[6],100 µg/mL
same,MIC,Escherichia coli,≤ 0.063 µg/mL
